According to the supplement of paper PMC10878532, “Sperm Toolbox—A selection of small molecules to study human spermatozoa” (PLOS ONE, 2024):
Structures can show the parent of a compound that is named as a salt.

Columns and labels:
HepG2 = HepG2 toxicity (resazurin), effect normalised to DMSO (DMSO = 0); higher = more features changed / larger toxic effect; settings: incubation time: 70h incubation
HeLa [1] = test: HeLa toxicity: nuclei-count effect normalised to DMSO (DMSO = 0); higher = more features changed / larger toxic effect; settings: incubation time: 24h incubation
HeLa [2] = test: Cell Painting percent induction (share of features beyond 2 z-scores vs DMSO); higher = more features changed / larger toxic effect; extreme values may be limits of the assay; settings: incubation time: 24h incubation
human spermatozoa [3] = test: total motile sperm, percent change vs DMSO (non-capacitating); higher = more of the measured sperm population than DMSO, for viability, fewer PI-positive (dead) cells than DMSO
human spermatozoa [4] = test: viability fold change, 1 - (PI-positive fraction / DMSO median); higher = more of the measured sperm population than DMSO, for viability, fewer PI-positive (dead) cells than DMSO; settings: incubation time: 3h, non-capacitating
human spermatozoa [5] = test: progressively motile sperm, percent change vs DMSO (capacitating); higher = more of the measured sperm population than DMSO, for viability, fewer PI-positive (dead) cells than DMSO; settings: incubation time: 30min incubation
human spermatozoa [6] = test: hyperactivated motile sperm, percent change vs DMSO (capacitating); higher = more of the measured sperm population than DMSO, for viability, fewer PI-positive (dead) cells than DMSO; settings: incubation time: 30min incubation
human spermatozoa [7] = test: change in acrosome-reacted (PNA+) sperm vs DMSO, no agonist (capacitating); higher = more of the measured sperm population than DMSO, for viability, fewer PI-positive (dead) cells than DMSO; settings: incubation time: 3h
human spermatozoa [8] = test: acrosome-reacted (PNA+) sperm after agonist cocktail, percent change vs DMSO (capacitating); higher = more of the measured sperm population than DMSO, for viability, fewer PI-positive (dead) cells than DMSO; settings: incubation time: 3h, capacitating + agonist cocktail 1h
human spermatozoa [9] = test: progressively motile sperm, percent change vs DMSO (non-capacitating); higher = more of the measured sperm population than DMSO, for viability, fewer PI-positive (dead) cells than DMSO; extreme values may be limits of the assay
[10] = incubation time: 10min incubation, 9.99 µM
[11] = incubation time: 10min incubation, 29.9 µM
[12] = incubation time: 3h incubation, 9.99 µM
[13] = incubation time: 3h incubation, 29.9 µM
[14] = incubation time: 6h incubation, 9.99 µM
[15] = incubation time: 6h incubation, 29.9 µM
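Throughout, for progressively motile sperm, percent change vs DMSO (non-capacitating): pooled live human sperm from at least 3 donors, tracked by automated microscopy in 0.5 s time-lapse movies, compounds at 10 and 30 µM, versus median of 16 DMSO wells per plate.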
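Throughout, for total motile sperm, percent change vs DMSO (non-capacitating): sperm pooled from at least 3 donors, tracked in 0.5 s time-lapse movies by automated microscopy after 10 min, 3 h or 6 h with compound at 10 or 30 µM.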

Row | Compound | HepG2 toxicity (HepG2; 10 µM) [%] | HepG2 toxicity (HepG2; 30 µM) [%] | HeLa toxicity: nuclei-count effect normalised (HeLa [1]; 9.99 µM) [%] | HeLa toxicity: nuclei-count effect normalised (HeLa [1]; 29.9 µM) [%] | Cell Painting percent induction (HeLa [2]; 9.99 µM) [%] | Cell Painting percent induction (HeLa [2]; 29.9 µM) [%] | total motile sperm (human spermatozoa [3]; [10]) [%] | total motile sperm (human spermatozoa [3]; [11]) [%] | total motile sperm (human spermatozoa [3]; [12]) [%] | total motile sperm (human spermatozoa [3]; [13]) [%] | total motile sperm (human spermatozoa [3]; [14]) [%] | total motile sperm (human spermatozoa [3]; [15]) [%] | viability fold change (human spermatozoa [4]; 9.99 µM) | viability fold change (human spermatozoa [4]; 29.9 µM) | progressively motile sperm (human spermatozoa [5]; 9.99 µM) [%] | progressively motile sperm (human spermatozoa [5]; 29.9 µM) [%] | hyperactivated motile sperm (human spermatozoa [6]; 9.99 µM) [%] | hyperactivated motile sperm (human spermatozoa [6]; 29.9 µM) [%] | change in acrosome-reacted (human spermatozoa [7]; 9.99 µM) [%] | change in acrosome-reacted (human spermatozoa [7]; 29.9 µM) [%] | acrosome-reacted (human spermatozoa [8]; 9.99 µM) [%] | acrosome-reacted (human spermatozoa [8]; 29.9 µM) [%] | progressively motile sperm (human spermatozoa [9]; [10]) [%] | progressively motile sperm (human spermatozoa [9]; [11]) [%] | progressively motile sperm (human spermatozoa [9]; [12]) [%] | progressively motile sperm (human spermatozoa [9]; [13]) [%] | progressively motile sperm (human spermatozoa [9]; [14]) [%] | progressively motile sperm (human spermatozoa [9]; [15]) [%]
1 | CCc1cc(Nc2nccc(-c3c(-c4ccc(OC)c(C(=O)Nc5c(F)cccc5F)c4)nc4ccccn34)n2)c(OC)cc1N1CCC(N2CCN(S(C)(=O)=O)CC2)CC1 | 3.43 | -1.34 | 4.68 | -3.87 | 0 | 0.036 | -4.19 | -0.876 | -8.85 | -6.8 | -6.63 | -13 | 0.344 | 0.176 | -19.6 | -24.3 | -15.3 | -19 | 0.271 | -0.0593 | -8.69 | 2.76 | 4.67 | 2.77 | 36.3 | 31.8 | 50.7 | 33.6
2 | Cc1ccc(S(=O)(=O)c2ccc([N+](=O)[O-])o2)cc1 | 103 | 103 | 83 | 88.8 | 18.5 | 9.8 | -0.166 | -5.06 | -76.8 | -91.9 | -86.5 | -92.7 | -1.25 | -1.57 | -9.29 | -10.6 | 3.4 | 0.123 | 3.49 | 4.92 | 81 | 103 | -30.4 | -44.1 | -96.9 | -100 | -99.3 | -100
3 | C[C@]1(O)C[C@@H](c2nc(-c3ccc4ccc(-c5ccccc5)nc4c3)c3c(N)nccn32)C1 [Linsitinib] | -2.88 | 27.2 | 2.74 | 25 | 1.62 | 0.144 | 2.7 | 5.16 | -8.39 | -6.08 | -8.05 | -11.2 | -1.24 | -1.48 | 10.2 | 14.7 | 219 | 114 | 1.26 | 1.92 | 115 | 113 | 43.2 | 45.9 | 71.3 | 65.1 | 93.9 | 79.2
4 | O=c1c(-c2ccc(O)cc2)coc2cc(O)cc(O)c12 [Genistein] | 6.96 | -8.2 | 17.4 | 22.9 | 0.108 | 0.612 | -0.344 | -2.3 | -0.864 | 0.829 | -0.945 | -6.76 | -0.643 | -0.0998 | 9.31 | 12 | 20.2 | -0.318 | 1.12 | 1.51 | 4.37 | 8.14 | 5.98 | 2.04 | 6.38 | 0.504 | 9.21 | 2.89
5 | N=C(N)Nc1ccc(C(=O)Oc2ccc3cc(C(=N)N)ccc3c2)cc1 [Nafamostat] | -7.68 | 4.06 | 2.4 | 1.27 | 0 | 0 | -0.692 | 2.17 | -4.33 | -1.82 | -5.56 | -0.0709 | -0.884 | -0.901 | 3.69 | 9.5 | 5.36 | 1.98 | 0.86 | 1.56 | 5.51 | 15.9 | -2.19 | 0.269 | -19.4 | -27.7 | -23.3 | -29.6
6 | CCOCc1nc2c(N)nc3ccccc3c2n1CC(C)(C)O [Resiquimod] | 12.3 | -1.68 | 1.14 | 0.735 | 0 | 0 | -0.764 | -12.1 | -11.9 | -23.9 | -12.4 | -21.3 | -0.843 | -0.207 | -29.5 | -59.7 | -81.8 | -84.5 | 0.989 | 0.739 | 2.21 | -0.339 | -38.4 | -75.7 | -66.1 | -88 | -66.2 | -83.9
7 | CNc1ccc2oc(C[C@H]3O[C@@]4(CC[C@H]3C)O[C@H]([C@H](C)C(=O)c3ccc[nH]3)[C@H](C)C[C@H]4C)nc2c1C(=O)O | 99.9 | 102 | 79.6 | 94.7 | 1.33 | 14.5 | -57.2 | -78.3 | -89.9 | -93.5 | -92 | -94.3 | -2.53 | -2.38 | -89.8 | -99.9 | -68.5 | -83.7 | 45.3 | 46.5 | 106 | 106 | -82.5 | -97.5 | -99.9 | -100 | -99.9 | -100
8 | COc1ccc2nc([S@@+]([O-])Cc3ncc(C)c(OC)c3C)[nH]c2c1 [Esomeprazole] | -1.96 | 4.42 | -3.81 | -3.61 | 0 | 0 | -4.34 | -3.89 | -8.86 | -9.65 | -8.85 | -15.2 | 0.0722 | -0.272 | 15.2 | 19 | 72.4 | 123 | 0.624 | 1.41 | 25.4 | 50.1 | 11.4 | 21.1 | 37 | 43.5 | 50.4 | 35.7
9 | COc1cc(C(=O)N2CCC(N3CCN(C)CC3)CC2)ccc1Nc1ncc2c(n1)N(C)c1ccccc1C(=O)N2C [LRRK2-IN-1] | 7.52 | 56.2 | 44.2 | 53.9 | 5.8 | 10.2 | -2.77 | -1.16 | -9.9 | -13 | -11.9 | -17.6 | -0.856 | -0.909 | 7.96 | 4.98 | 224 | 215 | 1.4 | 1.43 | 58.9 | 103 | 31.1 | 27.8 | 57.2 | 50.6 | 62.8 | 43.3
10 | OCCN(CCO)c1nc(N2CCCCC2)c2nc(N(CCO)CCO)nc(N3CCCCC3)c2n1 [Dipyridamole] | -2.63 | 7.46 | 3.21 | 2 | 0.036 | 0.18 | 0.517 | -2.33 | -2.26 | -16 | -6.57 | -14.4 | -2.05 | -2.06 | 16.4 | 19.4 | 88.9 | 43.9 | 1.09 | 1.87 | 56.3 | 74.8 | 36 | 38.1 | 80.3 | 58.3 | 82.1 | 83.5
11 | CC(C)[C@H]1c2ccc(F)cc2CC[C@@]1(CCN(C)CCCc1nc2ccccc2[nH]1)OC(=O)C1CC1 [NNC 55-0396 dihydrochloride] | 102 | 103 | 97.3 | 95.5 | 27.1 | 14.2 | 0.104 | -33.4 | -15 | -93.6 | -24.8 | -93 | -1.31 | -2.3 | 4.2 | -98.6 | -62 | -82.2 | 4.14 | 29.2 | 52.4 | 51.1 | 5.26 | -62.2 | 16.3 | -100 | 7.86 | -100
12 | COc1cc(C)c2c(Oc3cccc(C(F)(F)F)c3)c(OC)cc(NC(C)CCCN)c2n1 (stereo not given) [Tafenoquine] | 103 | 103 | 97.2 | 96.3 | 28.9 | 18 | -17.5 | -74.6 | -71.2 | -90.7 | -79.5 | -92 | -1.97 | -2.48 | -71.9 | -99.9 | -85.5 | -85.1 | 46.7 | 75 | 86.1 | 161 | -20.8 | -94.3 | -85.3 | -100 | -93.7 | -100
13 | Oc1c(Cl)cc(Cl)cc1Sc1cc(Cl)cc(Cl)c1O [Bithionol] | 7.02 | 59.3 | -4.61 | 21.5 | 0 | 0.036 | 3.44 | 1.84 | 1.98 | -0.0801 | 2.41 | -5.59 | 0.0494 | 0.376 | 2.24 | 1.88 | 4.13 | 7.86 | 0.572 | 1.65 | 1.08 | -1.64 | 3.11 | -10.9 | 11.4 | -27.5 | 17.4 | -30.7
14 | CCCCC/C=C\C/C=C\C/C=C\C/C=C\CCCC(=O)NCCO [Anandamide] | 4 | -4.04 | 3.27 | 22.7 | 0 | 0 | 0.0733 | 1.31 | -5.97 | 0.46 | -4.78 | -4.35 | -1.03 | -1.89 | 5.07 | 5.94 | -8.05 | -17.2 | 0.407 | 0.71 | -2.45 | -3.7 | 0.835 | 4.89 | 8.76 | 18.1 | 15.3 | 17.7
15 | Cc1sc2c(c1C)C(c1ccc(Cl)cc1)=N[C@@H](CC(=O)OC(C)(C)C)c1nnc(C)n1-2 [JQ1] | 56.3 | – | 16.3 | 31.3 | 0.684 | 1.87 | 4.25 | 1.65 | -3.02 | 0.304 | -0.955 | -3.78 | -0.127 | -0.0779 | 15.8 | 27.5 | 18.5 | -14.4 | 0.641 | 1.24 | 17.2 | 40.2 | 13.6 | 21.5 | 27.4 | 52.8 | 48 | 55.5
16 | O=C(O)c1cccnc1Nc1cccc(C(F)(F)F)c1 [Niflumic acid] | 4.41 | -6.15 | 2.94 | -2.27 | 0 | 0 | 2.12 | 1.32 | -5.94 | -1.61 | -3.08 | -6.87 | -1.06 | -0.652 | 5.54 | 7.87 | 19.3 | -6.47 | 0.714 | 0.944 | 4.85 | -0.457 | 9.44 | 5.93 | -5.45 | 4.68 | 7.86 | -5.16
17 | Clc1ccc(C(OCCN2CCCCC2)c2ccccc2)cc1 (stereo not given) [Cloperastine hydrochloride] | 7.17 | 8.06 | 6.68 | 19.6 | 1.84 | 3.64 | 1.61 | 2.24 | -3.5 | -29.1 | -19.1 | -44 | -1.96 | -1.7 | 5.13 | -14.3 | -26.2 | -69.6 | 1.21 | 0.462 | -1.44 | -4.86 | 7.41 | -9.23 | -87 | -98.1 | -86.3 | -97.8
